Here are results for 25 molecules from US7109243B2 (IRM LLC, priority 2003, dated 2006).

The term Ki denotes the equilibrium dissociation constant of an inhibitor or competing ligand from its target.

One assay has as its target T1, Cathepsin K (Homo sapiens, UniProt P43235).
T1 sequence (P43235 115-329): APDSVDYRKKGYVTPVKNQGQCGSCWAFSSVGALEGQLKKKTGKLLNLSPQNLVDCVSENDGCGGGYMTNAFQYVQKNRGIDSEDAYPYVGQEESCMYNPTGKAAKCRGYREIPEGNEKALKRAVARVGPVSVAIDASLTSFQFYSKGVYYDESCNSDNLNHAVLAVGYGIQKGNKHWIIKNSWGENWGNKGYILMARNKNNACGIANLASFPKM
Put plainly: Cathepsin K inhibition assay (fluorogenic peptide substrate); selectivity ratio vs cathepsin S. In kind it is biochemical. The settings on record: ratio of cathepsin K inhibition constant to cathepsin S inhibition constant; Table II. The gist of the method: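 Fluorogenic kinetic assay, started with acetyl-Lys-His-Pro-Lys-aminocarbamoylcoumarin at 40 μM final, hydrolysis followed at ex 380/em 450 nm. Apparent inhibition constants from progress curves, converted to competitive inhibition constants. Selectivity expressed as isozyme inhibition constant divided by cathepsin S inhibition constant.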

The target in a further assay is Cathepsin S (Homo sapiens, UniProt P25774). Briefly: Cathepsin S inhibition assay (fluorogenic peptide substrate). The format is biochemical. Particulars: Table II, compounds of Formula I; read-out: Ki Cat. S. An outline of the steps: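 Ki values come from nonlinear fitting of inhibited hydrolysis rates, taking free and total inhibitor concentrations as equal. Rates measured as rising fluorescence at 380/450 nm after reaction start with 50 μM final acetyl-HPVK-aminocarbamoylcoumarin.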

A value given as a limit tells only on which side of the number the result lay.

Sequence of Cathepsin S (P25774 115-331, species assumed): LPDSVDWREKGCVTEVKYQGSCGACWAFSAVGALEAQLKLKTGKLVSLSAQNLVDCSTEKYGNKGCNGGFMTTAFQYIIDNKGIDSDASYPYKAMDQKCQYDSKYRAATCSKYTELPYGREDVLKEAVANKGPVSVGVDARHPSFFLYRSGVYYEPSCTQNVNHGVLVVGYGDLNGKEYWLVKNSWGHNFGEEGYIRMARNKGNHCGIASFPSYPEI

In the case of `COc1ccc(NCCNC(=O)[C@H](CC2CCCCC2)NC(=O)c2cccc(Cl)c2F)cc1` [Compound 155, (S)-3-Chloro-N-{2-cyclohexyl-1-[2-(4-methoxy-phenylamino)-ethylcarbamoyl]-ethyl}-2-fluoro-benzamide], the “Selectivity for Cat. S over Cat. K” value at Cathepsin K is given as “+++ (+++, >1000)”. On Cathepsin S, the Ki was below 100 nM.

`COc1ccc(NCCNC(=O)[C@H](CC2CCCCC2)NC(=O)c2cc(Cl)ccc2F)cc1` [Compound 156, (S)-5-Chloro-N-{2-cyclohexyl-1-[2-(4-methoxy-phenylamino)-ethylcarbamoyl]-ethyl}-2-fluoro-benzamide]: the “Selectivity for Cat. S over Cat. K” value on Cathepsin K was “+++ (+++, >1000)”. For the same molecule, at Cathepsin S, the Ki is below 100 nM.

In the case of `COc1ccc(NCCNC(=O)[C@H](CC2CCCCC2)NC(=O)c2cc(F)ccc2C)cc1` [Compound 157, (S)-N-{2-Cyclohexyl-1-[2-(4-methoxy-phenylamino)-ethylcarbamoyl]-ethyl}-5-fluoro-2-methyl-benzamide], at Cathepsin K, the “Selectivity for Cat. S over Cat. K” value is given as “+++ (+++, >1000)”. Further, on Cathepsin S, the Ki was below 100 nM.

In the case of `COc1ccc(NCCNC(=O)[C@H](CC2CCCCC2)NC(=O)C2(c3ccccc3)CC2)cc1` [Compound 158, (S)-1-Phenyl-cyclopropanecarboxylic acid {2-cyclohexyl-1-[2-(4-methoxy-phenylamino)-ethylcarbamoyl]-ethyl}-amide], the “Selectivity for Cat. S over Cat. K” value at Cathepsin K is on record as “++ (++, >100)”. Also, the Ki at Cathepsin S is below 100 nM.

As for `COc1ccc(NCCNC(=O)[C@H](CC2CCCCC2)NC(=O)CNc2ccccc2)cc1` [Compound 159, (S)-3-Cyclohexyl-N-[2-(4-methoxy-phenylamino)-ethyl]-2-(2-phenylamino-acetylamino)-propionamide], the “Selectivity for Cat. S over Cat. K” value on Cathepsin K was “+++ (+++, >1000)”. Also, the Ki on Cathepsin S was below 100 nM.

For the molecule `COc1ccc(NCCNC(=O)[C@H](CC2CCCCC2)NC(=O)[C@H](O)c2ccccc2)cc1` [Compound 160, 3-Cyclohexyl-2-(S)-(2-(R)-hydroxy-2-phenyl-acetylamino)-N-[2-(4-methoxy-phenylamino)-ethyl]-propionamide], the “Selectivity for Cat. S over Cat. K” value on Cathepsin K is listed as “++ (++, >100)”. Besides, the Ki on Cathepsin S was below 10000 nM.

With `COc1ccc(NCCNC(=O)[C@H](CC2CCCCC2)NC(=O)c2cnn(-c3ccc(F)cc3)c2C)cc1` [Compound 161, (S)-1-(4-Fluoro-phenyl)-5-methyl-1H-pyrazole-4-carboxylic acid {2-cyclohexyl-1-[2-(4-methoxy-phenylamino)-ethylcarbamoyl]-ethyl}-amide], the “Selectivity for Cat. S over Cat. K” value at Cathepsin K was “++ (++, >100)”. Also, on Cathepsin S, the Ki is below 100 nM.

For the molecule `COc1ccc(NCCNC(=O)[C@H](CC2CCCCC2)NC(=O)c2cnn(-c3ccc(OC)cc3)c2C)cc1` [Compound 162, (S)-1-(4-Methoxy-phenyl)-5-methyl-1H-pyrazole-4-carboxylic acid {2-cyclohexyl-1-[2-(4-methoxy-phenylamino)-ethylcarbamoyl]-ethyl}-amide], on Cathepsin K, the “Selectivity for Cat. S over Cat. K” value is on record as “+ (+, >10)”. Besides, the Ki on Cathepsin S was below 100 nM.

Turning to `COc1ccc(NCCNC(=O)[C@H](CC2CCCCC2)NC(=O)c2cnn(-c3ccc(Cl)cc3)c2C)cc1` [Compound 163, (S)-1-(4-Chloro-phenyl)-5-methyl-1H-pyrazole-4-carboxylic acid {2-cyclohexyl-1-[2-(4-methoxy-phenylamino)-ethylcarbamoyl]-ethyl}-amide], the “Selectivity for Cat. S over Cat. K” value on Cathepsin K is listed as “+ (+, >10)”. Also, the Ki at Cathepsin S is below 100 nM.

As for `CC[C@H](C(=O)N[C@@H](CC1CCCCC1)C(=O)NCCNc1ccc(OC)cc1)c1ccccc1` [Compound 164, N-{2-Cyclohexyl-1-(S)-[2-(4-methoxy-phenylamino)-ethylcarbamoyl]-ethyl}-2-(S)-phenyl-butyramide], on Cathepsin K, the “Selectivity for Cat. S over Cat. K” value is reported as “+++ (+++, >1000)”. Moreover, at Cathepsin S, the Ki is below 100 nM.

Consider `COc1ccc(NCCNC(=O)[C@H](CC2CCCCC2)NC(=O)c2cc(F)cc(C(F)(F)F)c2)cc1` [Compound 165, (S)-N-{2-Cyclohexyl-1-[2-(4-methoxy-phenylamino)-ethylcarbamoyl]-ethyl}-3-fluoro-5-trifluoromethyl-benzamide], for which, at Cathepsin K, the “Selectivity for Cat. S over Cat. K” value is given as “+++ (+++, >1000)”. For the same molecule, at Cathepsin S, the Ki was below 100 nM.

As for `COc1ccc(NCCNC(=O)[C@H](CC2CCCCC2)NC(=O)c2cccc(C(F)(F)F)c2F)cc1` [Compound 166, (S)-N-{2-Cyclohexyl-1-[2-(4-methoxy-phenylamino)-ethylcarbamoyl]-ethyl}-2-fluoro-3-trifluoromethyl-benzamide], the “Selectivity for Cat. S over Cat. K” value at Cathepsin K is given as “+++ (+++, >1000)”. Moreover, the Ki at Cathepsin S is below 100 nM.

Take `COc1ccc(NCCNC(=O)[C@H](CC2CCCCC2)NC(=O)c2ccc(F)c(C)c2)cc1` [Compound 167, (S)-N-{2-Cyclohexyl-1-[2-(4-methoxy-phenylamino)-ethylcarbamoyl]-ethyl}-4-fluoro-3-methyl-benzamide]: the “Selectivity for Cat. S over Cat. K” value on Cathepsin K is recorded as “+++ (+++, >1000)”. Moreover, at Cathepsin S, the Ki was below 100 nM.

Turning to `COc1ccc(NCCNC(=O)[C@H](CC2CCCCC2)NC(=O)c2ccc(C(F)(F)F)cc2F)cc1` [Compound 169, (S)-N-{2-Cyclohexyl-1-[2-(4-methoxy-phenylamino)-ethylcarbamoyl]-ethyl}-2-fluoro-4-trifluoromethyl-benzamide], the “Selectivity for Cat. S over Cat. K” value at Cathepsin K was “++ (++, >100)”. For the same molecule, the Ki on Cathepsin S is below 1000 nM.

As for `COc1ccc(NCCNC(=O)[C@H](CC2CCCCC2)NC(=O)c2ccc(-c3ccc(Cl)cc3)cc2)cc1` [Compound 170, (S)-4′-Chloro-biphenyl-4-carboxylic acid {2-cyclohexyl-1-[2-(4-methoxy-phenylamino)-ethylcarbamoyl]-ethyl}-amide], on Cathepsin K, the “Selectivity for Cat. S over Cat. K” value is recorded as “+ (+, >10)”. Further, on Cathepsin S, the Ki was below 10000 nM.

For the molecule `COc1ccc(NCCNC(=O)[C@H](CC2CCCCC2)NC(=O)c2ccc(-c3cc(Cl)cc(Cl)c3)cc2)cc1` [Compound 171, (S)-3′, 5′-Dichloro-biphenyl-4-carboxylic acid {2-cyclohexyl-1-[2-(4-methoxy-phenylamino)-ethylcarbamoyl]-ethyl}-amide], the “Selectivity for Cat. S over Cat. K” value on Cathepsin K is “+++ (+++, >1000)”. For the same molecule, the Ki at Cathepsin S was below 100 nM.

Turning to `COc1ccc(NCCNC(=O)[C@H](CC2CCCCC2)NC(=O)c2ccc(-c3cccc(OC)c3)cc2)cc1` [Compound 172, (S)-3′-Methoxy-biphenyl-4-carboxylic acid {2-cyclohexyl-1-[2-(4methoxy-phenylamino)-ethylcarbamoyl]-ethyl}-amide], the “Selectivity for Cat. S over Cat. K” value on Cathepsin K is listed as “+++ (+++, >1000)”. The Ki at Cathepsin S is below 100 nM.

For the molecule `COc1ccc(NCCNC(=O)[C@H](CC2CCCCC2)NC(=O)c2ccc(-c3ccccc3OC)cc2)cc1` [Compound 174, (S)-2′-Methoxy-biphenyl-4-carboxylic acid {2-cyclohexyl-1-[2-(4-methoxy-phenylamino)-ethylcarbamoyl]-ethyl}-amide], the “Selectivity for Cat. S over Cat. K” value at Cathepsin K is “+ (+, >10)”. In addition, the Ki on Cathepsin S is below 100 nM.

Regarding `COc1ccc(NCCNC(=O)[C@H](CC2CCCCC2)NC(=O)c2cccc(-c3ccc(Cl)cc3)c2)cc1` [Compound 175, (S)-4′-Chloro-biphenyl-3-carboxylic acid {2-cyclohexyl-1-[2-(4-methoxy-phenylamino)-ethylcarbamoyl]-ethyl}-amide], the “Selectivity for Cat. S over Cat. K” value at Cathepsin K was “+++ (+++, >1000)”. The Ki on Cathepsin S was below 100 nM.

As for `COc1ccc(NCCNC(=O)[C@H](CC2CCCCC2)NC(=O)c2ccc(-c3ccc4c(c3)OCO4)cc2)cc1` [Compound 176, (S)-4-Benzo[1,3]dioxol-5-yl-N-{2-cyclohexyl-1-[2-(4phenylamino)-ethylcarbamoyl]-ethyl}-benzamide], the “Selectivity for Cat. S over Cat. K” value at Cathepsin K was “+++ (+++, >1000)”. Besides, the Ki at Cathepsin S was below 100 nM.

In the case of `COc1ccc(NCCNC(=O)[C@H](CC2CCCCC2)NC(=O)c2ccc(Br)o2)cc1` [Compound 177, (S)-5-Bromo-furan-2-carboxylic acid {2-cyclohexyl-1-[2-(4-methoxy-phenylamino)-ethylcarbamoyl]-ethyl}-amide], the “Selectivity for Cat. S over Cat. K” value on Cathepsin K was “++ (++, >100)”. The Ki at Cathepsin S is below 100 nM.

With `COc1ccc(NCCNC(=O)[C@H](CC2CCCCC2)NC(=O)c2cc(Br)cc(Br)c2)cc1` [Compound 178, (S)-3,5-Dibromo-N-{2-cyclohexyl-1-[2-(4-methoxy-phenylamino)-ethylcarbamoyl]-ethyl}-benzamide], the “Selectivity for Cat. S over Cat. K” value on Cathepsin K is reported as “+++ (+++, >1000)”. The Ki at Cathepsin S was below 100 nM.

Regarding `COc1ccc(NCCNC(=O)[C@H](CC2CCCCC2)NC(=O)c2cc(Cl)cc(Cl)c2)cc1` [Compound 179, (S)-3,5-Dichloro-N-{2-cyclohexyl-1-[2-(4-methoxy-phenylamino)-ethylcarbamoyl]-ethyl}-benzamide], the “Selectivity for Cat. S over Cat. K” value at Cathepsin K is “+++ (+++, >1000)”. For the same molecule, the Ki on Cathepsin S was below 100 nM.

In the case of `COc1ccc(NCCNC(=O)[C@H](CC2CCCCC2)NC(=O)c2cc(OC)cc(OC)c2)cc1` [Compound 180, (S)-N-{2-Cyclohexyl-1-[2-(4-methoxy-phenylamino)-ethylcarbamoyl]-ethyl}-3,5-dimethoxy-benzamide], the “Selectivity for Cat. S over Cat. K” value at Cathepsin K was “+ (+, >10)”. Further, the Ki on Cathepsin S was below 100 nM.

For the molecule `COc1ccc(NCCNC(=O)[C@H](CC2CCCCC2)NC(=O)c2ccc(Br)s2)cc1` [Compound 182, (S)-5-Bromo-thiophene-2-carboxylic acid {2-cyclohexyl-1-[2-(4-methoxy-phenylamino)-ethylcarbamoyl]-ethyl}-amide], the “Selectivity for Cat. S over Cat. K” value at Cathepsin K is “+ (+, >10)”. Besides, the Ki on Cathepsin S was below 100 nM.
